Patent US20220073525A1, “COMPOSITIONS FOR INHIBITING UBIQUITIN SPECIFIC PROTEASE 1” (FORMA Therapeutics, Inc., priority 2019, published 2022)

These molecules were tested against USP1 (Homo sapiens, UniProt O94782) (assay: Biochemical Assay for USP1 Inhibition (Ub-Rho 110 fluorescence)). Settings: Table 5; 30 min preincubation, Enzyme 0.025 nM, Substrate Ub-Rho 110 25 nM; read-out: IC50 (μm).
Protocol: The assay was performed in a final volume of 6 μL in assay buffer containing 20 mM Tris-HCl pH 8.0, (1 M Tris-HCl, pH 8.0 solution; Corning 46-031-CM), 1 mM GSH (L-glutathione reduced, Sigma-Aldrich, G4251-100G), 0.03% BGG (0.22 μM filtered, Sigma, G7516-25G), and 0.01% Triton X-100 (Sigma, T9284-10L). Nanoliter quantities of 10-point, 3-fold serial dilution in DMSO were pre-dispensed into 1536 assay plates (Corning, #3724BC) for a final test concentration of 25 μM to 1.3 nM, top to lowest dose, respectively. Concentration and incubation times were optimized for the maximal signal-to-background while maintaining initial velocity conditions at a fixed substrate concentration (<<Km). 3 μL of 2× Enzyme was added to assay plates (pre-stamped with compound), preincubated for 30 min, and then treated with 3 μL of 2× Substrate (Ub-Rho 110, UbiQ-126). Final concentrations of Enzyme and Substrate are 0.025 nM and 25 nM, respectively. Plates were read using a kinetic protocol continuously for 11 min on the Envision (Perkin Elmer) or PheraSTAR (BMG), excitation at 485 nm and emission at 535 nm or excitation at 520 nm and emission at 590 nm. For all assay formats, data were reported as percent inhibition compared with control wells based on the following equation: % inh=100*([…]), where FLU=measured Fluorescence, AveLow=average Fluorescence of no enzyme control (n=32), and AveHigh=average Fluorescence of DMSO control (n=32). IC50 values were determined by curve fitting of the standard 4 parameter logistic fitting algorithm included in the Activity Base software package: TDBS XE Designer Model205. Data is fitted using the Levenburg Marquardt algorithm.
In Table 5, absolute stereochemistry has not been determined for some Compounds. Accordingly, assignment ofany Compounds as the “R” or “S” stereoisomer is arbitrary, unless otherwise noted. In some cases, Compounds are labeled with “1st eluting isomer”, “2nd eluting isomer”, etc. based on the purification method used to separate the stereoisomers.

Sequence of USP1 (O94782 whole entry): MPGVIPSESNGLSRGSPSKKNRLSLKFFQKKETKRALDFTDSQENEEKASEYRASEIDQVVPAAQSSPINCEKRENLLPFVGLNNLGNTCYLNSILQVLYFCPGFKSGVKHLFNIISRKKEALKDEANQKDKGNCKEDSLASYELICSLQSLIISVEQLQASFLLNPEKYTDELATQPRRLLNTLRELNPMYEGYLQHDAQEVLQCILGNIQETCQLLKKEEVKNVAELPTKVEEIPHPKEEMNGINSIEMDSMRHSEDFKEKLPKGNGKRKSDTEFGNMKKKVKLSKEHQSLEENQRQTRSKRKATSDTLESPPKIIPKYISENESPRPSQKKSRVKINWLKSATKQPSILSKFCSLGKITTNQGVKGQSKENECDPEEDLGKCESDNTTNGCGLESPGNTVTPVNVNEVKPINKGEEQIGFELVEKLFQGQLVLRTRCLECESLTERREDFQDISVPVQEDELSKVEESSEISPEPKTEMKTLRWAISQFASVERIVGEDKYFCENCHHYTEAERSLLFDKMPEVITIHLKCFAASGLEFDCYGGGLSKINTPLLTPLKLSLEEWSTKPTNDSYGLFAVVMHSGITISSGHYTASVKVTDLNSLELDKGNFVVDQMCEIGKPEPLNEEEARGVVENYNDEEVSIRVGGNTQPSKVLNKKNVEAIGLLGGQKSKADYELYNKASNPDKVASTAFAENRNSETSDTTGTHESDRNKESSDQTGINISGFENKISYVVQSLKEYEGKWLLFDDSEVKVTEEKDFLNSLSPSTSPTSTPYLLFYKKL
Sequence of USP1 (Q8TAF3 whole entry partner): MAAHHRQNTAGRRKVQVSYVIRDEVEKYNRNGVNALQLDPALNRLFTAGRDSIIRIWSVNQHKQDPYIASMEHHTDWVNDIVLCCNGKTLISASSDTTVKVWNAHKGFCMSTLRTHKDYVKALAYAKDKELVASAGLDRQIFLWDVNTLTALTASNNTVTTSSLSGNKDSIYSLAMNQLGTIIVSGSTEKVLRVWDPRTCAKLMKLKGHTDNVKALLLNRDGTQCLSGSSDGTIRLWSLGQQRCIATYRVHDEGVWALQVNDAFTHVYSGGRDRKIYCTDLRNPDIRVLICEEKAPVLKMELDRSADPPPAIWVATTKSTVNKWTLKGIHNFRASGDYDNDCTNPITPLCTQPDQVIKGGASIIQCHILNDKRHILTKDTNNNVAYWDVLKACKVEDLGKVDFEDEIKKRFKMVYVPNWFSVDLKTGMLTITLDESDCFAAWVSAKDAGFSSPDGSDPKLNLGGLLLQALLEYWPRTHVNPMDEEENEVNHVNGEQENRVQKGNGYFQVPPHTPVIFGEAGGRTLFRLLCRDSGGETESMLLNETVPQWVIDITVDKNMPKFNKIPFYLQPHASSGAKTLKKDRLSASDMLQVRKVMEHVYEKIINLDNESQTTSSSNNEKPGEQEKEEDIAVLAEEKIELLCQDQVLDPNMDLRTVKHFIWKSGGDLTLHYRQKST

Compound	IC50 [µM]
Cc1nc(-c2cccnc2C(C)C)c2n1C(C)CN(c1ccc(-c3nc(C(F)(F)F)cn3C)cc1)C2 (centres unmarked) [Compound 56, 3-(3,5-dimethyl-7-{4-[1-methyl-4-(trifluoromethyl)-1H-imidazol-2-yl]phenyl}-5H,6H,7H,8H-imidazo[1,5-a]pyrazin-1-yl)-2-(propan-2-yl)pyridine]	≤ 1
Cc1nc(-c2cccnc2C(C)C)c2n1CCN(c1ccc(N3CCCC3=O)cc1)C2 [Compound 43, 1-(4-{3-methyl-1-[2-(propan-2-yl)pyridin-3-yl]-5H,6H,7H,8H-imidazo[1,5-a]pyrazin-7-yl}phenyl)pyrrolidin-2-one]	1 to 10
Cc1nc(-c2cccnc2C(C)C)c2n1CCN(c1ccc(-c3nnn(C)n3)cc1)C2 [Compound 40, 3-{3-methyl-7-[4-(2-methyl-2H-1,2,3,4-tetrazol-5-yl)phenyl]-5H,6H,7H,8H-imidazo[1,5-a]pyrazin-1-yl}-2-(propan-2-yl)pyridine]	1 to 10
Cc1nc(-c2cccnc2C(C)C)c2n1CCN(c1cccc(C(=O)N3CCC[C@H]3C)c1)C2 [Compound 61, 3-(3-methyl-7-{3-[(2R)-2-methylpyrrolidine-1-carbonyl]phenyl}-5H,6H,7H,8H-imidazo[1,5-a]pyrazin-1-yl)-2-(propan-2-yl)pyridine]	> 25
Cc1nc(-c2cccnc2C(C)C)c2n1CCN(c1ccc(-c3nc(C4CC4)cn3C)cc1)C2 [Compound 80, 3-{7-[4-(4-cyclopropyl-1-methyl-1H-imidazol-2-yl)phenyl]-3-methyl-5H,6H,7H,8H-imidazo[1,5-a]pyrazin-1-yl}-2-(propan-2-yl)pyridine]	≤ 1
Cc1nc(-c2cccnc2C(C)C)c2n1CCN(c1ccc(OCCN3CCOCC3)cc1)C2 [Compound 23, 4-[2-(4-{3-methyl-1-[2-(propan-2-yl)pyridin-3-yl]-5H,6H,7H,8H-imidazo[1,5-a]pyrazin-7-yl}phenoxy)ethyl]morpholine]	10 to 25
COc1ccc(N2CCn3c(C)nc(-c4cccnc4C(C)C)c3C2)cc1 [Compound 17, 3-[7-(4-methoxyphenyl)-3-methyl-5H,6H,7H,8H-imidazo[1,5-a]pyrazin-1-yl]-2-(propan-2-yl)pyridine]	> 25
CC(C)c1ncccc1-c1ncn2c1CN(c1ccc(-c3nc(C(F)(F)F)cn3C)cc1)CC2 [Compound 4, 3-(7-{4-[1-methyl-4-(trifluoromethyl)-1H-imidazol-2-yl]phenyl}-5H,6H,7H,8H-imidazo[1,5-a]pyrazin-1-yl)-2-(propan-2-yl)pyridine]	≤ 1
Cc1nc(-c2cccnc2C(C)C)c2n1CCN(c1ccc(-c3nc(C(F)(F)F)cn3C)cn1)C2 [Compound 13, 2-{3-methyl-1-[2-(propan-2-yl)pyridin-3-yl]-5H,6H,7H,8H-imidazo[1,5-a]pyrazin-7-yl}-5-[1-methyl-4-(trifluoromethyl)-1H-imidazol-2-yl]pyridine]	≤ 1
Cc1nc(-c2cccnc2C(C)C)c2n1CCN(c1cccc(C(=O)N(C)C3CC3)c1)C2 [Compound 60, N-cyclopropyl-N-methyl-3-{3-methyl-1-[2-(propan-2-yl)pyridin-3-yl]-5H,6H,7H,8H-imidazo[1,5-a]pyrazin-7-yl}benzamide]	> 25
Cc1nnc(-c2ccc(N3CCn4c(C)nc(-c5cccnc5C(C)C)c4C3)cc2)o1 [Compound 44, 3-{3-methyl-7-[4-(5-methyl-1,3,4-oxadiazol-2-yl)phenyl]-5H,6H,7H,8H-imidazo[1,5-a]pyrazin-1-yl}-2-(propan-2-yl)pyridine]	1 to 10
Cc1nc(-c2cccnc2C(C)C)c2n1CCN(c1ccc(C(=O)NCc3ccc(-n4ccc(C(F)(F)F)n4)cc3)cc1)C2 [Compound 53, 4-{3-methyl-1-[2-(propan-2-yl)pyridin-3-yl]-5H,6H,7H,8H-imidazo[1,5-a]pyrazin-7-yl}-N-({4-[3-(trifluoromethyl)-1H-pyrazol-1-yl]phenyl}methyl)benzamide]	1 to 10
CNC(=O)c1ccc(N2CCn3c(C)nc(-c4cccnc4C(C)C)c3C2)cc1 [Compound 26, N-methyl-4-{3-methyl-1-[2-(propan-2-yl)pyridin-3-yl]-5H,6H,7H,8H-imidazo[1,5-a]pyrazin-7-yl}benzamide]	> 25
Cc1nc(-c2cccnc2OC(F)F)c2n1CC(C)N(c1ccc(-c3nc(C(F)(F)F)cn3C)cc1)C2 (single isomer, unassigned) [Compound 27-1, 2-(difluoromethoxy)-3-[-3,6-dimethyl-7-{4-[1-methyl-4-(trifluoromethyl)-1H-imidazol-2-yl]phenyl}-5H,6H,7H,8H-imidazo[1,5-a]pyrazin-1-yl]pyridine]	≤ 1
COCCn1cc(-c2ccc(N3CCn4c(C)nc(-c5cccnc5C(C)C)c4C3)cc2)cn1 [Compound 70, 3-(7-{4-[1-(2-methoxyethyl)-1H-pyrazol-4-yl]phenyl}-3-methyl-5H,6H,7H,8H-imidazo[1,5-a]pyrazin-1-yl)-2-(propan-2-yl)pyridine]	10 to 25
Cc1nc(-c2cccnc2C(C)C)c2n1CCN(c1ncccn1)C2 [Compound 10, 2-{3-methyl-1-[2-(propan-2-yl)pyridin-3-yl]-5H,6H,7H,8H-imidazo[1,5-a]pyrazin-7-yl}pyrimidine]	> 25
Cc1nc(-c2cccnc2C(C)C)c2n1CCN(c1ccc(C3COC(=O)N3)cc1)C2 (centres unmarked) [Compound 37, 4-(4-{3-methyl-1-[2-(propan-2-yl)pyridin-3-yl]-5H,6H,7H,8H-imidazo[1,5-a]pyrazin-7-yl}phenyl)-1,3-oxazolidin-2-one]	> 25
Cc1nc(-c2cccnc2C(C)C)c2n1CCN(c1cc(N3CCCCC3)ncn1)C2 [Compound 19, 4-{3-methyl-1-[2-(propan-2-yl)pyridin-3-yl]-5H,6H,7H,8H-imidazo[1,5-a]pyrazin-7-yl}-6-(piperidin-1-yl)pyrimidine]	10 to 25
Cc1nc(-c2cccnc2C(C)C)c2n1CCN(c1ccc(-n3ccnc3)cc1)C2 [Compound 47, 3-{7-[4-(1H-imidazol-1-yl)phenyl]-3-methyl-5H,6H,7H,8H-imidazo[1,5-a]pyrazin-1-yl}-2-(propan-2-yl)pyridine]	> 25
Cc1nc(-c2cccnc2C(C)C)c2n1CCN(c1cccc(C(=O)N3CCC[C@@H]3C)c1)C2 [Compound 62, 3-(3-methyl-7-{3-[(2S)-2-methylpyrrolidine-1-carbonyl]phenyl}-5H,6H,7H,8H-imidazo[1,5-a]pyrazin-1-yl)-2-(propan-2-yl)pyridine]	> 25
CC(C)c1ncccc1-c1nc(C(F)(F)F)n2c1CN(c1ccc(-c3nc(C(F)(F)F)cn3C)cc1)CC2 [Compound 2, 3-(7-{4-[1-methyl-4-(trifluoromethyl)-1H-imidazol-2-yl]phenyl}-3-(trifluoromethyl)-5H,6H,7H,8H-imidazo[1,5-a]pyrazin-1-yl)-2-(propan-2-yl)pyridine]	≤ 1

Same assay, conditions: Table 6, additional compounds; 30 min preincubation, Enzyme 0.025 nM, Substrate Ub-Rho 110 25 nM; read-out: IC50

Compound	IC50 [µM]
Cc1nc(-c2cccnc2C(C)C)c2n1CCN(c1ccc(-c3nc(C(F)(F)F)cn3C)cc1)C2=O [Compound C-5, 1-(2-isopropylpyridin-3-yl)-3-methyl-7-(4-(1-methyl-4-(trifluoromethyl)-1H-imidazol-2-yl)phenyl)-6,7-dihydroimidazo[1,5-a]pyrazin-8(5H)-one]	> 25
Cc1nc(-c2cccnc2C(C)C)c2n1CCN(C(=O)c1ccc(-c3ccnn3C(C)C)nc1)C2 [Compound C-6, 3-(3-methyl-7-{6-[1-(propan-2-yl)-1H-pyrazol-5-yl]pyridine-3-carbonyl}-5H,6H,7H,8H-imidazo[1,5-a]pyrazin-1-yl)-2-(propan-2-yl)pyridine]	> 25
